Measured values reported in patent US20080081039A1, “Inorganic Selenium For Treatment Of Cancer” (priority 2004, published 2008).
Where two headings read alike, the source gives them in different places.

Tests used:
PC-3 cells = settings: 0.25 mM, 54 hours
Description: BrdU Incorporation assays and immunofluorescence were carried out by plating 2.5×10^3 PC-3 cells and allowing them to attach overnight. […] Cells were incubated for a further 16 hours, then washed 3× in PBS and fixed in 4% PFA for 10 minutes at room temperature.
Mouse monoclonal anti-BrdU and antibodies were used as the primary antibodies and anti-mouse 488 Alexa, as the secondary antibodies. The percentage of cells incorporating BrdU was determined by counting the number of green staining nuclei per number of DAPI positive cells. 100 DAPI positive cells were counted per coverslip and the experiment performed in triplicate.

[1] = tested on: androgen independent CSS LNCaP cells
Description: 5×10^4 human prostate cancer androgen independent CSS LNCaP cells were seeded in a 6-well dish and 8 hours later were treated with either 50 μM selenate or not (control).
The parental androgen-sensitive LNCaP cell line was obtained from the American Type Culture Collection (Manassas, Va., USA) and routinely cultured in […] (Invitrogen) supplemented with 10% foetal calf serum and 1% antibiotic/antimycotic mixture (Invitrogen). Cells were maintained at 37° C. in 5% CO2. To select androgen independent LNCaP cells LNCaPs were cultured in […] (Invitrogen) in 5% Charcoal stripped serum (CSS) (Invitrogen) which has removed all detectable traces of testosterone, for 6-8 weeks and obtained LNCaP cell lines which were now able to freely proliferate in the absence of testosterone. These cells are referred to as CSS LNCaPs.
(§1) Between 5×10^4 (FIGS. 1-2) and 1×10^5 LNCaP, CSS LNCaP or Q293 cells were allowed to attach overnight. […] Supernatants and cells were then harvested, combined and viable cells assessed by Trypan Blue exclusion assay. Experiments were performed in triplicate.

Akt = experiment: Immunoblot of Akt phosphorylation in serum starved PC-3 cells; type: cell-based, human; settings: 0.5 mM
Source text: (§2) The following antibodies were obtained from Cell Signaling Technology (Beverly, Mass., USA) unless otherwise stated: anti-p27^KIP1 (bd Pharmingen), anti-p21^CIP1 , ANTI-CYCLIN d1, ANTI-CYCLIN d3, ANTI-CDK4, ANTI-CDK6, ANTI-PHOSPHO rb (Ser807/811), anti-RB, anti-phospho Akt (Ser473), anti-phospho Akt (Thre308), anti-Akt, anti-phospho PDK1 (Ser241), anti-phospho PDK1 (Tyr373/376), anti-phospho GSK-3β, anti-phospho mTOR (Ser2448), anti-mTOR, anti-βIII tubulin (Promega).
(§3) To determine the effect of selenate on the phosphorylation of proteins involved in the PI3K/Akt signaling cascade, 5×10^5 PC-3 cells were allowed to attach for 10 hours. […] Cells were lysed in ELB (250 mM NaCl, 50 mM HEPES pH 7.0, 5 mM EDTA, 0.5 mM DTT, 0.2% TX100, 20 mM sodium fluoride, 2 mM sodium pervanadate, Complete Protease Inhibitor Cocktail (Roche)). Lysates were centrifuged for 15 minutes at 4° C. Protein concentration was determined using the BCA system (Sigma) and equal amounts of protein were loaded into each lane of a SDS-polyacrylamide gel. The proteins were transferred onto PVDF (Millipore) membranes and detected with anti-mouse or anti-rabbit secondary antibodies couples to horseradish peroxidase (HRP) and chemiluminescence using the SuperSignal West Dura (Pierce). Membranes were stripped using the Restore Western Blot Stripping Buffer (Pierce).

[2] = tested on: human prostate tumor cells; settings: in comparison to organic selenomethionine, methylselenocysteine or selenized yeast; cited from earlier work
GFP-FKHR fusion protein = experiment: GFP-FKHR cellular localization in transfected PC-3 cells; type: cell-based, human; settings: LY294002 50 μM 1 hour; sodium selenate or selenomethionine 0.5 mM 3 hours
Description: The day before transfection, 5×10^5 PC-3 cells were seeded in 24-well dishes and transiently transfected with 0.8 μg of pcDNA3-GFP-FKHRwt construct (kind gift Dr Bill Sellers, Dana-Farber Institute, Boston) using Lipofectamine 2000 (Invitrogen). Cells were permeabilized in 0.2% Triton X-100 and the nuclear contents stained with DAPI. Coverslips were mounted with fluorescent mounting medium (DAKO). The cellular distribution of green fluorescence was determined in dual fluorescent cells using a Leica epifluorescent microscope.
Reintroducing PTEN function in such cells induces translocation of FKHR to the nucleus eventually causing G1 arrest in PTEN-null cells (Nakamura et al 2000, supra).

mTOR = settings: 0.5 mM, various time periods
Source text: as §2, §3

[3] = tested on: retinoblastoma protein (Rb ser807/811); settings: 0.5 mM, time-dependent
Source text: as §2, §3

GSK-3β = settings: 0.5 mM, various time periods
Source text: as §2, §3

PDK1 = settings: 0.5 mM, out to 6 hours
Source text: as §2, §3

[4] = tested on: human prostate cancer PC-3 cells; experiment: Cell toxicity by Trypan Blue Exclusion, selenate versus selenite; settings: 5 μM or 50 μM, 24 to 96 hours
Description: 5×10^3 human prostate cancer PC-3 cells were seeded in a 24-well dish and 8 hours later were treated with either 5 μM or 50 μM of selenate or selenite. The dose range of 5 μM or 50 μM is equivalent to 0.1 mg/kg to 1.25 mg/kg. Cells were harvested at 24, 48, 72 and 96 hours following the addition of selenate or selenite and the percentage of viable cells as assessed by Trypan Blue staining was determined.
All cells in the tissue culture wells were then harvested sequentially at periods between 24 and 96 hours following addition of the treatments. The percentage of viable cells were then determined using the Trypan Blue exclusion assay.

[5] = tested on: human kidney epithelial Q293 cells; experiment: Cell growth curve of Q293 cells, Trypan Blue; type: cell-based; settings: selenate 5 μM, LY294002 10 μM, 9 days
Description: Q293 cells are a human kidney epithelial cell line routinely cultured in DMEM media (Invitrogen) in 5% foetal calf serum and 1% antibiotic/antimycotic mixture (Invitrogen).
as §1

O=[Se](=O)(O)O [sodium selenate]
G1/S progression (BrdU/FrdU positive nuclei) (PC-3 cells): severely impeded | CSS LNCaP cell proliferation ([1]; 5 μM, 9 days, absence of androgen (charcoal stripped serum)): synergizes with androgen ablation to markedly reduce | androgen independent CSS LNCaP cell proliferation ([1]; 5 μM, 9 days, presence of testosterone (normal serum)): markedly reduces | sensitivity of androgen independent cells versus parental LNCaP cells ([1]; 50 μM, 72 hours): even more sensitive | CSS LNCaP cell proliferation ([1]; 50 μM, 72 hours, presence or absence of androgen): synergizes with androgen ablation to reduce | total cellular Akt levels (pan Akt) (Akt): essentially unchanged | Akt activation after the transient boost (Akt; later exposure times): marked and prolonged deactivation | Akt phosphorylation at Ser473 (Akt; various time points, FIG. 4D): profoundly inhibited | phosphorylation of Akt at Ser473 and Thr308, early (Akt; within 10 minutes of exposure): transient boost | tumor progression [2]: significantly reduces tumor progression | relocalization of GFP-FKHR from the cytoplasm to the nucleus (GFP-FKHR fusion protein): marked relocalization | mTOR phosphorylation status (mTOR): induced a decline | phosphorylation of Rb (ser807/811) [3]: marked decline | GAK-3β phosphorylation status (GSK-3β): induced a decline | phosphorylation status of PDK1 (ser241, tyr373/376) (PDK1): no effect | cytotoxic effect (Trypan Blue exclusion) [4]: not cytotoxic | percentages of viable cells [4]: equivalent to the control untreated samples | Q293 cell proliferation ([5]; CSS media (androgen ablation)): does not significantly effect | Q293 cell proliferation ([5]; normal serum): does not significantly effect
